According to patent publication US20170355743A1, “INSULIN RECEPTOR PARTIAL AGONISTS” (Merck Sharp & Dohme Corp., priority 2014, published 2017):

Tested on: C57BL/6NTac mice
Assay: Intraperitoneal Insulin Tolerance Test (IP-ITT)
Type: in vivo
Settings: intraperitoneal injection, two doses per compound (Table 16), lean male C57BL/6NTac mice, 30 to 360 minutes after dose
Description: Groups of N=6-8 animals per group were randomized by weight (average about 30 grams). Two days prior to study, the mice were conditioned to dosing with an intraperitoneal injection of 0.9% Sodium Chloride solution at 5 ml/kg dosing volume. On the morning of the study, food was removed two or four hours prior to the study. Blood glucose concentrations were determined at T=0 min (baseline) using a Glucometer. […] Blood glucose levels were determined from tail bleeds taken between 30 to 360 minutes after dose.

Substance: B29,B29′-suberoyl-(insulin)2 [Compound B, reference compound]
- blood glucose profile at low versus high dose: increased glucose lowering potency
